Where “and” joins values, the source holds several entries; their conditions need not be identical. Equal entries are not always repeated. Where two headings read alike, the source gives them in different places.

One data set concerns viral replication. To be noted: background; cited from earlier work.
The conditions of data set [1]: cited from earlier work.
Data set [2] can be described thus: Reverse phase HPLC retention time comparison (lipophilicity). To be noted: measure of lipophilicity. Format: physicochemical. The source says: A series of compounds were produced in accord with the method of Example 1 with various substitutions of 2' deoxycytidine at the N^4 position of the dialkylaminomethylene side chain.
Because of economic considerations 2'-deoxycytidine, was used as the parent nucleoside for comparison purposes in this study.

Data set [3] is described as follows: Rate of hydrolysis in phosphate buffer by UV spectroscopy and HPLC. Format: physicochemical. To be noted: 10 mM K-phosphate buffer, pH 7.4, read-out: half-life (t1/2) of hydrolysis (converted). The protocol:
The rates of hydrolysis of the different derivatives appear to depend greatly on the structure of the substituent introduced at the exocyclic NH2 group. For example, the half-life (t1/2) of N^4 -dimethylaminomethylene […] (compound 3 in Table 1) is 5 hours at 37° in 10 mM K-phosphate buffer at pH 7.4, as determined by UV spectroscopy and HPLC analysis. Under the same conditions, N^4 -diisopropylamino-methylene-2'-deoxycytidine (compound 7 in Table 1) has a t1/2 =3 days. Thus, there is an order of magnitude difference in the rate of hydrolysis of these two side chains. The variations in the susceptibility to hydrolysis provide another parameter for the optimization of the pharmacokinetic profile.

The test system of data set [4] is human immunodeficiency virus (HIV-1, strain LAV). The data set can be described thus: NCI in vitro anti-HIV drug screen, antiviral activity. Format: cell-based. To be noted: for activity against human immunodeficiency virus: HIV-1, strain LAV, NCI In-Vitro Testing Program. Here is the method: (§1) The protocol used in NCI's Developmental Therapeutics Program AIDS antiviral drug screening program involves plating of susceptible human "host" cells with and without virus in microculture plates, adding various concentrations of test material, incubating the plates for seven days (during which time infected, non-drug treated control cells are largely or totally destroyed by the virus), and then determining the number of remaining viable cells using a calorimetric endpoint. The dose dependent antiviral activity and cytotoxicity were determined and plotted on a graph illustrated as FIG. 1.
(§2) Two parameters are extracted from the curves illustrated in FIG. 1: the EC50, representing the concentration of drug that results in a 50% reduction of the viral cytopathic effect; and the IC50, representing the concentration of drug resulting in 50% cytotoxicity (growth inhibition derived from the normal, uninfected cultures). An in-vitro therapeutic index (TI) may be calculated as the ratio (IC50 /EC50)if both values are obtained.

The subject of the next data set is HIV. In words: NCI in vitro anti-HIV drug screen, protection of CEM cells against HIV. Format: cell-based. Conditions: Human immunodeficiency virus 1, CCRF-CEM, 168 h; CEM cell line; read-out: concentration giving complete protection against HIV. Here is the method:
as §1, §2

Data set [5] in a line: NCI in vitro anti-HIV drug screen, cytotoxicity, CEM cells. Format: cell-based, human. To be noted: human, cem cells, CEM, read-out: IC50 (cytotoxicity). The protocol: as §1, §2
Another data set deals with CEM. The description is as above. Format: cell-based, human. Conditions: CEM cell line, 8 micromolar. Here is the method:
as §1, §2

Data set [6] is described as follows: NCI in vitro anti-HIV drug screen, cytotoxicity, ATH8 cells. Format: cell-based. Conditions: human, ATH8, test of 9-08-87, uninfected cultures, seven days, read-out: IC50 (cytotoxicity). The protocol: as §1, §2
Data set [7] can be described thus: NCI in vitro anti-HIV drug screen, cytotoxicity, C3-44 cells. Format: cell-based. To be noted: human, C3-44, tests of 3-15-88 and 3-16-88, uninfected cultures, seven days, read-out: IC50 (cytotoxicity). Here is the method:
as §1, §2

Data set [8] can be described thus: NCI in vitro anti-HIV drug screen, cytotoxicity, LDV-7 cells. Format: cell-based. To be noted: human, LDV-7, tests of 3-15-88, 3-16-88, 3-25-88, uninfected cultures, seven days, read-out: IC50 (cytotoxicity). The protocol:
as §1, §2

The nature of data set [9]: NCI in vitro anti-HIV drug screen, cytotoxicity, MT-2 cells. Format: cell-based. To be noted: human, MT-2, tests of 1-29-88 and 3-25-88, uninfected cultures, seven days, read-out: IC50 (cytotoxicity). Here is the method:
as §1, §2

Data set [10] in a line: NCI in vitro anti-HIV drug screen, cytotoxicity, five different cell lines. Format: cell-based, human. Conditions: human; all five different cell lines; IC50 could not be reached up to highest concentration employed; read-out: IC50 (50% cytotoxicity). Here is the method: as §1, §2
In data set [11] the test system is five different cell lines. Described as above. Conditions: all five different cell lines, up to highest concentration employed. Format: cell-based, human. Here is the method:
as §1, §2

The test system of another data set is viral p24 antigen. The data set can be described thus: Viral p24 antigen by enzyme-linked immunosorbent assay in CEM cells. Format: cell-based, HIV. To be noted: FIG. 2.

For the compound `Nc1ncnc2c1ncn2[C@H]1CC[C@@H](CO)O1` [2', 3'-dideoxyadenosine], the “inhibition of viral replication” value with viral replication is recorded as “effective in inhibiting viral replication”.

As to `Cc1cn([C@H]2C[C@H](N=[N+]=[N-])[C@@H](CO)O2)c(=O)[nH]c1=O` [AZT], the half-life entry in data set [1] (human, in vivo) was “short half-life”. For the same compound, in data set [1] (patients with AIDS or AIDS related complex (ARC)), the therapeutic benefit result is recorded as “considerable therapeutic benefit”. Also, in [1] (patients, ddC compared to AZT, Phase I and II trials), the bone marrow toxicity entry was “severe bone marrow toxicity”.

Regarding `Nc1ccn([C@H]2C[C@H](O)[C@@H](CO)O2)c(=O)n1` [Compound 1, 2'-Deoxycytidine, reference compound], the “RETENTION TIME” value in data set [2] worked out at 2.13 min.

As to `O=c1nc(N=CN2CCOCC2)ccn1[C@H]1C[C@H](O)[C@@H](CO)O1` [Compound 2, N^4 -Morpholinomethylene-2'-deoxycytidine], the “RETENTION TIME” value in data set [2] is given as 3.07 min.

On to `CN(C)C=Nc1ccn([C@H]2C[C@H](O)[C@@H](CO)O2)c(=O)n1` [Compound 3, N^4-dimethylaminomethylene-2'-deoxycytidine], for which, in data set [2], the “RETENTION TIME” value is given as 3.26 min. Besides, the half-life in data set [3] (37°) is 5 h.

For `O=c1nc(N=CN2CCCC2)ccn1[C@H]1C[C@H](O)[C@@H](CO)O1` [Compound 4, N^4 -Pyrrolidinomethylene-2'-deoxycytidine], the “RETENTION TIME” value in data set [2] amounted to 5.16 min.

`CCN(C=Nc1ccn([C@H]2C[C@H](O)[C@@H](CO)O2)c(=O)n1)CC` [Compound 5, N^4 -Diethylaminomethylene-2'-deoxycytidine]: the “RETENTION TIME” value in data set [2] was 6.44 min.

On to `O=c1nc(N=CN2CCCCC2)ccn1[C@H]1C[C@H](O)[C@@H](CO)O1` [Compound 6, N^4 -Piperidinomethylene-2' deoxycytidine], for which the “RETENTION TIME” value in data set [2] came out at 7.79 min.

For the compound `CC(C)N(C=Nc1ccn([C@H]2C[C@H](O)[C@@H](CO)O2)c(=O)n1)C(C)C` [Compound 7, N^4 -Diisopropylamino-methylene-2'-deoxycytidine], the half-life in [3] (same conditions: 37°) was 72 h.

With `CC1CCCC(C)N1C=Nc1ccn([C@H]2C[C@H](O)[C@@H](CO)O2)c(=O)n1` (some centres unmarked) [Compound 8, N^4-2,6-Dimethylpiperidino-methylene-2'-deoxycytidine], in data set [2], the “RETENTION TIME” value came out at 21.81 min.

Take `CCCCN(C=Nc1ccn([C@H]2C[C@H](O)[C@@H](CO)O2)c(=O)n1)CCCC` [Compound 9, N^4 -Di-n-butylamino-methylene-2'-dioxycytidine]: in data set [2], the “RETENTION TIME” value came out at 125 min.

In the case of `CN(C)C=Nc1ccn([C@H]2CC[C@@H](CO)O2)c(=O)n1` [DAM-ddC, N^4-dimethylaminomethylene-2', 3'-dideoxycytidine], the “activity against human immunodeficiency virus” value in [4] was “Significant activity”. In addition, the antiviral activity entry in data set [4] (anti-HIV drug screen, FIG. 3) is “significant antiviral activity”.

`CN(C)C=Nc1ccn([C@H]2C[C@H](F)[C@@H](CO)O2)c(=O)n1` [DDFC, N^4-dimethylaminomethylene-2', 3'-dideoxy-3'-fluorocytidine]: the “antiviral activity in several cell lines” value in data set [4] (FIG. 1, several cell lines) is recorded as “significant antiviral activity”. For the same compound, the “activity against human immunodeficiency virus” value in [4] is listed as “Significant activity”. Also, in the data set on HIV, the EC100 came to 8 µM. Also, the CC50 at 168 h is > 200 nM and > 0.055 µg/mL in [5] (test of 1-23-88, highest concentration tested); > 200 µM and > 56 µg/mL in [5] (tests of 1-13-88, 3-15-88, 3-25-88, 3-16-88, uninfected cultures, seven days); > 200 µM and > 56 µg/mL in [6]; > 200 µM and > 56 µg/mL in data set [7]; > 200 µM and > 56 µg/mL in data set [8]; > 200 µM and > 56 µg/mL in data set [9]. Further, in [10], the CC50 at 168 h is greater than 200 µM. Besides, the “cytotoxicity at the concentration of complete protection” value with CEM was “without any cytotoxicity”. In data set [11], the cytotoxicity observed entry is “uniformly very little cytotoxicity”. The “correlation of protection against cytopathic effect of HIV with p24 antigen” value with viral p24 antigen was “correlated with the decrease in the presence of viral p24 antigen”.

As to `Nc1ccn([C@H]2CC[C@@H](CO)O2)c(=O)n1` [ddC, 2', 3'-dideoxycytidine], in the data set with viral replication, the “inhibition of viral replication” value is listed as “effective in inhibiting viral replication”. Besides, the dose limiting toxicity result in data set [1] (Phase I and II trials) was “peripheral neuropathy”. Moreover, the bone marrow toxicity entry in data set [1] (human, in vivo) is reported as “much less bone marrow suppression”.
